“Also recorded” adds a separate entry of the source. Bridge positions count the residues as written; N and C are the ends. Peptide text beside a SMILES is read from it.
Tests used:
[1] = system: pre-germinated conidia of A. flavus; conditions: read-out: IC50 against A. flavus; in vitro; pre-germinated conidia of A. flavus 70-GFP treated 60 min with 0-25 μM peptide; colonies counted after 24 h at 30° C.
[2] = system: porcine blood cells; experiment: Hemolysis of porcine blood cells
[3] = system: maize (Zea mays L. Hi-II); experiment: Phenotype of transgenic maize plants expressing AGM182; conditions: transgenic maize plants vs. isogenic negative or non-transformed control

Row | Molecule | IC50 [1] | hemolysis of porcine blood cells ([2]; 0.1% Triton-X, positive control) | effect of transgenic expression on plant phenotype and seed weight [3] | hemolysis of porcine blood cells ([2]; all concentrations of AGM182)
1 | CC[C@H](C)[C@@H]1NC(=O)CNC(=O)[C@H](CCCNC(=N)N)NC(=O)[C@H](Cc2ccc(O)cc2)NC(=O)[C@@H]2CSSC[C@H](NC1=O)C(=O)N[C@@H](Cc1ccc(O)cc1)C(=O)N[C@@H](CCCNC(=N)N)C(=O)N[C@@H](CCCNC(=N)N)C(=O)N[C@H](C(=O)N[C@@H](CCCNC(=N)N)C(N)=O)CSSC[C@H](NC(=O)[C@H](Cc1c[nH]c3ccccc13)NC(=O)[C@@H](N)CCCCN)C(=O)N[C@@H](Cc1ccccc1)C(=O)N[C@@H](CCCNC(=N)N)C(=O)N[C@@H](C(C)C)C(=O)N2 [tachyplesin1, reference compound] (H-KWCFRVCYRGICYRRCR-NH2; disulfide 3-16, 7-12) | 12.5 µM |  |  | 
2 | Triton-X [reference compound] |  | 100% |  | 
3 | CC[C@H](C)[C@H](NC(=O)[C@@H]1CSSC[C@H](NC(=O)[C@H](CC(C)C)NC(=O)[C@H](CCCNC(=N)N)NC(=O)[C@H](C)NC(=O)[C@H](CCCCN)NC(=O)[C@@H](NC(=O)[C@@H](N)CCCCN)[C@@H](C)CC)C(=O)N[C@@H](CC(C)C)C(=O)NCC(=O)N[C@@H](CCCCN)C(=O)N[C@@H](Cc2ccccc2)C(=O)N1)C(=O)N[C@@H](CCCCN)C(=O)N[C@@H](C)C(=O)N[C@@H](CCCNC(=N)N)C(=O)N[C@@H](CC(C)C)C(=O)N[C@@H](CCCCN)C(=O)O [AGM182] (H-KIKARLCLGKFCIKARLK-OH; disulfide 7-12) | 2.5 µM |  | did not exhibit any overt phenotype; also recorded: did not have any negative effect on plant phenotype and seed weight | No hemolysis; also recorded: absence of hemolytic activity

Reference: patent publication US12138294B2, “Transgenic corn with antifungal peptide AGM182 (DN:0113.18)” (GENVOR, INC., priority 2018, dated 2024)
